System: patients with refractory metastatic colorectal cancer (mCRC)
Assay: PFS, OS and disease control in the training (evaluation) cohort of refractory mCRC patients receiving TAS-102 (n=52, Japan), by baseline characteristics, SNP genotype and toxicity
Assay type: in vivo, human
Conditions: for PFS HR (95% CI) ‡ / OS HR (95% CI)‡: multivariable; for HR for OS / HR for PFS / Disease Control Rate PD / Disease Control Rate SD / Overall Survival Median, months (95% CI) / Progression-free Survival Median, months (95% CI) / Overall Survival HR (95% CI) multivariate / Overall Survival HR (95% CI) univariate / Progression-free Survival HR (95% CI) multivariate / Progression-free Survival HR (95% CI) univariate / OS / PFS: training cohort
Experimental: All patients underwent the treatment in salvage-line setting. […]
(§1) Genomic DNA was extracted from peripheral whole blood in patients of all cohorts using the QIAmp Kit (Qiagen, Valencia, Calif., USA) according to the manufacturer's protocol (www.qiagen.com). The candidate SNPs were genotyped using PCR-based direct DNA sequence analysis by ABI 3100A Capillary Genetic Analyzer and Sequencing Scanner v1.0 (Applied Biosystems). Amplification of extracted DNA was carried out using both forward and reverse primers for each gene polymorphism as shown in Table 1. […] The investigators analyzing SNPs were blinded to the clinical data of the study patients.
The primary endpoint in this study was progression-free survival (PFS), and the secondary endpoints were overall survival (OS) and disease control rate (DCR). PFS was calculated from the date of starting treatment to the first observation of disease progression or death from any cause. If a patient had no disease progression or death, PFS was censored at the date of last follow up. OS was calculated from the date of starting treatment until the date of death from any cause or the date of the last follow-up, at which point OS was censored. The disease control rate (DCR) was defined as the proportion of patients who achieved a stable disease (SD) or […] according to RECISTv1.1. Chi-square test was used to examine the difference in baseline patient characteristics among the three cohorts. Allelic distribution of all SNPs by ethnicity for deviation from Hardy-Weinberg equilibrium and the allelic frequencies of SNPs were tested using the Chi-square tests with one degree of freedom. The associations between candidate SNPs and disease control, and toxicities were examined using contingency tables and Fisher's exact test. The associations of SNPs with PFS and OS were analysed using Kaplan-Meier curves and the log-rank test. Because the true mode of inheritance of candidate SNPs was not established yet, a codominant or dominant genetic model if appropriate was considered.
All patients underwent the treatment in salvage-line setting. […] In all patients, adverse events were graded according to the Common Terminology Criteria for Adverse Events, version 4.0. […]
as §1, with “tested” for “genotyped”, “Biosystems).” for “Biosystems). Amplification of extracted DNA was carried out using both forward and reverse primers for each gene polymorphism as shown in Table 1.”, “data.” for “data of the study patients.”
The primary endpoint in this study was progression-free survival (PFS), and the secondary endpoints were overall survival (OS) and disease control rate (DCR).

[1] = p21 rs1801270 Any C vs A/A, univariate
[2] = p21 rs1801270 C/C vs A/A, univariate
[3] = p53 rs1042522 Any G vs C/C, univariate
[4] = p53 rs1042522 C/G vs C/C, univariate
[5] = p53 rs1042522 G/G vs C/C, univariate
[6] = MATE1/OCT2 combination Good vs Poor, univariate
[7] = MATE1/OCT2 combination, multivariable adjusted for liver metastases and adjuvant history
[8] = MATE1 rs2289669/OCT2 rs316019 combination, Good category
[9] = MATE1 rs2289669/OCT2 rs316019 combination, Poor category
[10] = MATE1 rs2289669 G/A vs G/G, univariate
[11] = OCT2 rs316019 C/A and A/A combined vs C/C

## Trifluridine/tipiracil [TAS-102]
p21 rs1801270 Any C vs A/A
  PFS HR (95% CI) ‡: 0.74 (0.37, 1.49)
[1]
  OS HR (95% CI)†: 0.64 (0.27, 1.56)
  PFS HR (95% CI) †: 0.88 (0.44, 1.74)
p21 rs1801270 C/C
  OS median, months (95% CI): 6.3 (3.1, 10.7) months
  PFS median, months (95% CI): 2.7 (1.6, 4.6) months
p21 rs1801270 C/C vs A/A
  OS HR (95% CI)‡: 0.72 (0.24, 2.15)
  PFS HR (95% CI) ‡: 0.77 (0.33, 1.79)
[2]
  OS HR (95% CI)†: 0.85 (0.29, 2.48)
  PFS HR (95% CI) †: 0.97 (0.43, 2.17)
p53 rs1042522 Any G
  OS median, months (95% CI): 7.2 (5.4, 15.6+) months
  PFS median, months (95% CI): 3.0 (2.1, 3.4) months
p53 rs1042522 Any G vs C/C
  OS HR (95% CI)‡: 1.28 (0.52, 3.19)
  PFS HR (95% CI) ‡: 1.10 (0.58, 2.09)
[3]
  OS HR (95% CI)†: 1.15 (0.47, 2.81)
  PFS HR (95% CI) †: 0.89 (0.48, 1.65)
p53 rs1042522 C/C
  OS median, months (95% CI): 8.7 (5.3, 14.8+) months
  PFS median, months (95% CI): 2.5 (1.6, 4.4) months
p53 rs1042522 C/G
  OS median, months (95% CI): 6.3 (4.4, 12.4+) months
  PFS median, months (95% CI): 3.0 (1.9, 3.5) months
p53 rs1042522 C/G vs C/C
  OS HR (95% CI)‡: 1.61 (0.64, 4.06)
  PFS HR (95% CI) ‡: 1.12 (0.57, 2.21)
[4]
  OS HR (95% CI)†: 1.35 (0.55, 3.35)
  PFS HR (95% CI) †: 0.86 (0.45, 1.65)
p53 rs1042522 G/G
  PFS median, months (95% CI): 2.3 (0.7, 4.6+) months
p53 rs1042522 G/G vs C/C
  OS HR (95% CI)‡: 0.38 (0.05, 3.11)
  PFS HR (95% CI) ‡: 1.04 (0.38, 2.86)
[5]
  OS HR (95% CI)†: 0.41 (0.05, 3.29)
  PFS HR (95% CI) †: 1.02 (0.37, 2.77)
[6]
  HR for OS: 0.39
  HR for PFS: 0.44
[7]
  HR for OS: 0.41
  HR for PFS: 0.45
MATE1_OCT019 good
  Disease Control Rate PD: 20 (59%)
  Disease Control Rate SD: 14 (41%)
  Overall Survival Median, months (95% CI): 8.3 (6.3, 15.6) months
  Progression-free Survival Median, months (95% CI): 3.4 (2.1, 4.1) months
MATE1_OCT019 good vs poor
  Overall Survival HR (95% CI) multivariate: 0.41 (0.16, 1.04)
  Overall Survival HR (95% CI) univariate: 0.39 (0.15, 0.98)
  Progression-free Survival HR (95% CI) multivariate: 0.45 (0.23, 0.88)
  Progression-free Survival HR (95% CI) univariate: 0.44 (0.22, 0.85)
MATE1_OCT019 poor
  Disease Control Rate PD: 11 (92%)
  Disease Control Rate SD: 1 (8%)
  Overall Survival Median, months (95% CI): 4.9 (2.8, 10.7) months
  Progression-free Survival Median, months (95% CI): 2.3 (1.2, 2.9) months
[8]
  OS: 8.3 months
  PFS: 3.4 months
[9]
  OS: 4.9 months
  PFS: 2.3 months
MATE1 rs2289669 A/A
  Disease Control Rate PD: 8 (80%)
  Disease Control Rate SD: 2 (20%)
  Overall Survival Median, months (95% CI): 4.9 (2.8, 6.5+) months
  Progression-free Survival Median, months (95% CI): 2.3 (1.2, 3.3) months
MATE1 rs2289669 A/A vs G/G
  Overall Survival HR (95% CI) multivariate: 1.98 (0.56, 6.99)
  Overall Survival HR (95% CI) univariate: 2.40 (0.59, 8.37)
  Progression-free Survival HR (95% CI) multivariate: 0.92 (0.38, 2.24)
  Progression-free Survival HR (95% CI) univariate: 0.94 (0.40, 2.18)
MATE1 rs2289669 Any A
  Disease Control Rate PD: 22 (61%)
  Disease Control Rate SD: 14 (39%)
  Overall Survival Median, months (95% CI): 8.3 (5.3, 15.6+) months
  Progression-free Survival Median, months (95% CI): 3.0 (2.1, 3.7) months
MATE1 rs2289669 Any A vs G/G
  Overall Survival HR (95% CI) multivariate: 0.93 (0.33, 2.59)
  Overall Survival HR (95% CI) univariate: 1.03 (0.37, 2.83)
  Progression-free Survival HR (95% CI) multivariate: 0.53 (0.25, 1.13)
  Progression-free Survival HR (95% CI) univariate: 0.56 (0.28, 1.13)
MATE1 rs2289669 G/A
  Disease Control Rate PD: 14 (54%)
  Disease Control Rate SD: 12 (45%)
  OS: 12.4 months
  Overall Survival Median, months (95% CI): 12.4 (5.7, 15.6+) months
  PFS: 3.4 months
  Progression-free Survival Median, months (95% CI): 3.4 (2.1, 4.4) months
MATE1 rs2289669 G/A vs G/G
  Overall Survival HR (95% CI) multivariate: 0.59 (0.23, 2.11)
  Overall Survival HR (95% CI) univariate: 0.75 (0.26, 2.28)
  Progression-free Survival HR (95% CI) multivariate: 0.41 (0.18, 0.94)
  Progression-free Survival HR (95% CI) univariate: 0.44 (0.20, 0.93)
[10]
  HR for OS: 0.76
  HR for PFS: 0.44
MATE1 rs2289669 G/A, multivariate adjusted for liver metastases and adjuvant history
  HR for PFS: 0.41
MATE1 rs2289669 G/G
  Disease Control Rate PD: 9 (90%)
  Disease Control Rate SD: 1 (10%)
  OS: 8.1 months
  Overall Survival Median, months (95% CI): 8.1 (5.4, 10.7+) months
  PFS: 2.0 months
  Progression-free Survival Median, months (95% CI): 2.0 (1.4, 3.4) months
OCT2 rs316019 A/A
  Disease Control Rate PD: 1 (25%)
  Disease Control Rate SD: 3 (75%)
OCT2 rs316019 C/A
  Disease Control Rate PD: 6 (67%)
  Disease Control Rate SD: 3 (33%)
OCT2 rs316019 C/A and A/A combined
  Progression-free Survival Median, months (95% CI): 3.0 (1.2, 6.0+) months
[11]
  Overall Survival HR (95% CI) multivariate: 1.74 (0.55, 5.51)
  Overall Survival HR (95% CI) univariate: 1.04 (0.38, 2.89)
  Progression-free Survival HR (95% CI) multivariate: 1.32 (0.58, 3.02)

Reference: patent US20190233884A1 (University of Southern California, priority 2016, published 2019)
